In patent US12006330B2, “Substituted macrocyclic compounds and related methods of treatment” (Alkermes, Inc., priority 2020, dated 2024):

Legend:
Format in all cases: in vitro ADME
[1] = test system: MDR1; experiment: MDCK-MDR1 permeability assay; details: dog, MDCK-MDR1, MDCK-MDR1 cells; for efflux ratio at 2 h, 3 μM: Papp B→A divided by Papp A→B, read-out: Efflux ratio (ER); for Papp A→B at 2 h, 3 μM: test compound 3 μM, 2 hours at 37 degrees C, apical to basolateral
Protocol: The bidirectional permeability (Apical to Basal and Basal to Apical directions) of test compounds in MDCK-MIDR1 cells were evaluated using MDCK-MIDR1 cells seeded in Solvo PreadyPort™ MDCK 96-well plate. Once the plate was received from ReadyCell (Barcelona, Spain), it was treated as per PreadyPort™ user's manual.
For the Apical to Basolateral (A→B) permeability, 80 μL of test compound (3 μM) co-dosed with LY (Lucifer Yellow) (100 μM) in HBSS (Hank's Balanced Salt Solution) assay buffer was added to the donor side (A) while 250 μL of HBSS buffer was added to the receiver side (B). For the Basolateral to Apical (B→A) permeability, 255 μL of test compound (3 μM) in HBSS assay buffer was added to the donor side (B) while 75 μL of HBSS buffer containing LY (100 μM) was added to the receiver side (A).
The plate was placed in an incubator set at 37 degrees C. After 10 minutes of pre-warming, 5 μL aliquot was taken from donor compartment and set aside as the dosing solution. The MDCK-MDR1 incubation plate was placed back into the incubator for 2 hours of incubation at 37 degrees C. After 2 hours of incubation, 25 μL and 5 μL aliquots were removed from the receiver and donor sides, respectively. To the 5 μL aliquots taken from the donor sides (before and after a 2-hour incubation) were diluted with 20 μL of the HBSS buffer. All samples were mixed with 150 μL with acetonitrile containing internal standard (IS) and 200 μL water, and analyzed by LC-MS/MS.
The apparent permeability (Papp) was calculated using the following formula: Papp=dQ/dt×1/A×C0 where: • dQ/dt: amount of translocated material over incubation time (nmol/s) • A: area of insert (0.14 cm^2 for PreadyPort™ MDR1-96) • C0: initial concentration of product applied in apical (A→B) or basal (B→A) compartment (nmol/mL)
The efflux ratio (ER) was measured by dividing the Papp (basolateral to apical direction) by Papp (apical to basolateral direction). It is a general measure of the involvement of active processes. An ER>2 is considered positive for active transport.
Percent recovery was measured using the following equation:
[formula] where: • VR: Volume of the receiver compartment (mL) • VD: Volume of the donor compartment (mL) • CN: Concentration of dosing solution (μM) collected after 10 minutes of incubation • CR^final: Receiver concentration at the end of the incubation (μM) • CD^final: Donor concentration at the end of the incubation (μM)
The data reported in Table 3 were obtained according to the MDCK-MDR1 permeability assay described above.

[2] = test system: human hepatocytes; experiment: Hepatocytes stability assay (human hepatocytes); details: human hepatocytes; scaled hepatic clearance divided by liver blood flow (well-stirred model, fu assumed unity)
Protocol: (§1) In vitro metabolic stability was assessed using cryopreserved hepatocytes from male Sprague Dawley rats and a pool of 50 mixed gender humans (BioIVT, Baltimore, MD). The incubation mixtures were prepared by mixing 250 μL of pre-warmed KHB (Krebs-Henseleit buffer) containing 2×10^6 cell/mL of hepatocytes with 250 μL of pre-warmed KHB buffer containing 2 μM of test compounds in a 48-well plate, giving a final concentration of 1 μM test compound (0.1% DMSO) and 1×10^6 cell/mL of hepatocytes. The reaction mixture was incubated at 37 degrees C. A 50 μL aliquot of incubation mixture was taken at time points (0, 15, 30, 60, 120 and 240 minutes) and transferred into a 96-well plate containing 300 μL ice-cold acetonitrile (containing 30 ng/mL of labetalol and 10 ng/mL of Naltrexone-d3 as internal standards) and immediately placed in ice to terminate the reaction. Samples were centrifuged, and supernatants were transferred into 96-well plates for liquid chromatography with tandem mass spectrometry (LC-MS/MS) analysis to monitor the depletion of the test compound.
(§2) Data was calculated as percent remaining by assuming zero-minute time point peak area ratio (analyte/IS) as 100% and dividing remaining time point peak area ratios by zero-minute time point peak area ratio. Data were fitted to a first-order decay model to determine half-life. From a plot of log (ln) peak area against time, the slope of the line was determined. Subsequently, half-life (T1/2) and intrinsic clearance (CLint) were calculated using the equations below: Elimination rate constant (k)=(−slope) Half-life (T1/2) min=0.693/k Intrinsic Clearance (CLint) (mL/min/million cells)=(V×0.693)/T1/2 V=incubation volume mL/number of cells The in vitro T1/2 was converted to in vitro intrinsic clearance (CLint,hep) in units of mL/min/kg using the formula shown below:
(§3) [formula] The in vitro intrinsic clearance (CLint,hep) was scaled to in vivo hepatic clearance (CL,hep) using the following equation which was adapted from a well-stirred model.
(§4) [formula] where Q is the liver blood flow and fu is the fraction unbound (assumed to be unity in this case). All parameters used in the calculation are shown below (Table 4).
(§5) The extraction ratio (ER) was calculated by dividing the hepatic clearance of a compound to the liver blood flow. The data reported in Table 5 were obtained according to the human hepatocytes stability assay described above.

[3] = Hepatocytes stability assay (human hepatocytes); details: both sexes, human, cryopreserved hepatocytes, cryopreserved human hepatocytes (pool of 50 mixed gender); 1 μM test compound; 1×10^6 cell/mL; 37 degrees C; read-out: CLint (μL/min/million cells)
Protocol: as §1, §2, §3, §4, §5

SMILES | efflux ratio at 2 h, 3 μM [1] | Papp A→B at 2 h, 3 μM [1] | Extraction Ratio (ER) [2] | hepatocyte CLint at 1 μM [3]
Cc1cccc2c1C1CCC(CC1)OC[C@H]1[C@@H](NS(=O)(=O)C3CC3)CCCN1C(=O)CO2 (stereo in doubt) [Compound 4] | 31 | 0.66 ×10⁻⁶ cm/s | 0.81 | 29 µL/min/1e6 cells
C=CS(=O)(=O)N[C@H]1CCCN2C(=O)COc3ccccc3C3CCC(CC3)OC[C@@H]12 (stereo in doubt) [Compound 5] | 29 | 1.3 ×10⁻⁶ cm/s | 0.77 | 22 µL/min/1e6 cells
O=C1COc2ccccc2C2CCC(CC2)OC[C@H]2[C@@H](NS(=O)(=O)CF)CCCN12 (stereo in doubt) [Compound 6] | 35 | 1 ×10⁻⁶ cm/s | 0.73 | 18 µL/min/1e6 cells
CC1(S(=O)(=O)N[C@H]2CCCN3C(=O)COc4ccccc4C4CCC(CC4)OC[C@@H]23)CC1 (stereo in doubt) [Compound 8] | 3.6 | 1.8 ×10⁻⁶ cm/s | 0.82 | 31 µL/min/1e6 cells
O=C1COc2ncccc2C2CCC(CC2)OC[C@H]2[C@@H](NS(=O)(=O)C3CC3)CCCN12 (stereo in doubt) [Compound 14] | > 100 | 0.3 ×10⁻⁶ cm/s | 0.75 | 20 µL/min/1e6 cells
O=C1COc2ccccc2C2CCC(CC2)OC[C@H]2[C@@H](NS(=O)(=O)CCO)CCCN12 (stereo in doubt) [Compound 19] | > 100 | < 0.092 ×10⁻⁶ cm/s | 0.50 | 6.6 µL/min/1e6 cells
O=C1COc2ccccc2[C@H]2CC[C@H](CC2)OCC2[C@@H](NS(=O)(=O)C3CCCC3)CCCN12 (stereo in doubt) [Compound 33] | 59 | 0.55 ×10⁻⁶ cm/s | 0.86 | 41 µL/min/1e6 cells
CN(C)CCS(=O)(=O)N[C@H]1CCCN2C(=O)COc3ccccc3[C@H]3CC[C@H](CC3)OCC12 (stereo in doubt) [Compound 39] | > 100 | < 0.086 ×10⁻⁶ cm/s | 0.75 | 20 µL/min/1e6 cells
O=C1COc2ccccc2[C@H]2CC[C@H](CC2)OCC2[C@@H](NS(=O)(=O)C3CCC3)CCCN12 (stereo in doubt) [Compound 42] | 7.4 | 0.92 ×10⁻⁶ cm/s | 0.84 | 36 µL/min/1e6 cells
O=C1COc2ccccc2[C@H]2CC[C@H](CC2)OCC2[C@@H](NS(=O)(=O)CC3CCC3)CCCN12 (stereo in doubt) [Compound 43] | 10 | 0.96 ×10⁻⁶ cm/s | 0.89 | 55 µL/min/1e6 cells

Other lines, results leading:

efflux ratio at 2 h, 3 μM [1] | Papp A→B at 2 h, 3 μM [1] | Extraction Ratio (ER) [2] | hepatocyte CLint at 1 μM [3] | SMILES
22 | 1.4 ×10⁻⁶ cm/s | 0.74 | 19 µL/min/1e6 cells | O=C1COc2ccccc2C2CCC(CC2)OC[C@H]2[C@@H](NS(=O)(=O)C(F)F)CCCN12 (stereo in doubt) [Compound 7]
50 | 0.87 ×10⁻⁶ cm/s | 0.83 | 32 µL/min/1e6 cells | Cc1cccc2c1C1CCC(CC1)OC[C@H]1[C@@H](NS(=O)(=O)C(C)C)CCCN1C(=O)CO2 (stereo in doubt) [Compound 9]
72 | 0.35 ×10⁻⁶ cm/s | 0.48 | 6.3 µL/min/1e6 cells | Cc1ccc2c(c1)C1CCC(CC1)OC[C@H]1[C@@H](NS(=O)(=O)C3CC3)CCCN1C(=O)CO2 (stereo in doubt) [Compound 13]
> 100 | 0.2 ×10⁻⁶ cm/s | 0.47 | 6.1 µL/min/1e6 cells | O=C1COc2ccc(Cl)cc2C2CCC(CC2)OC[C@H]2[C@@H](NS(=O)(=O)C3CC3)CCCN12 (stereo in doubt) [Compound 16]
19 | 0.83 ×10⁻⁶ cm/s | 0.46 | 5.8 µL/min/1e6 cells | Cc1ccc2c(c1)C1CCC(CC1)OC[C@H]1[C@@H](NS(=O)(=O)C(C)C)CCCN1C(=O)CO2 (stereo in doubt) [Compound 18]
> 100 | < 0.12 ×10⁻⁶ cm/s | 0.43 | 5.1 µL/min/1e6 cells | CC(C)S(=O)(=O)N[C@H]1CCCN2C(=O)COc3ccc(Cl)cc3[C@H]3CC[C@H](CC3)OCC12 (stereo in doubt) [Compound 26]
92 | 0.43 ×10⁻⁶ cm/s | 0.36 | 3.8 µL/min/1e6 cells | Cc1c(Cl)ccc2c1[C@H]1CC[C@H](CC1)OCC1[C@@H](NS(=O)(=O)C(C)C)CCCN1C(=O)CO2 (stereo in doubt) [Compound 28]
> 100 | 0.32 ×10⁻⁶ cm/s | 0.37 | 3.9 µL/min/1e6 cells | Cc1c(Cl)ccc2c1[C@H]1CC[C@H](CC1)OCC1[C@@H](NS(C)(=O)=O)CCCN1C(=O)CO2 (stereo in doubt) [Compound 31]
67 | 0.44 ×10⁻⁶ cm/s | 0.52 | 7.1 µL/min/1e6 cells | Cc1cnc2c(c1)[C@H]1CC[C@H](CC1)OCC1[C@@H](NS(=O)(=O)C(C)C)CCCN1C(=O)CO2 (stereo in doubt) [Compound 34]
81 | 0.35 ×10⁻⁶ cm/s | 0.70 | 16 µL/min/1e6 cells | CC(C)S(=O)(=O)N[C@H]1CCCN2C(=O)COc3ncc(Cl)cc3[C@H]3CC[C@H](CC3)OCC12 (stereo in doubt) [Compound 35]
> 100 | 0.23 ×10⁻⁶ cm/s | 0.78 | 24 µL/min/1e6 cells | Cc1cccc2c1OCC(=O)N1CCC[C@H](NS(C)(=O)=O)C1CO[C@H]1CC[C@@H]2CC1 (stereo in doubt) [Compound 37]
> 100 | < 0.18 ×10⁻⁶ cm/s | 0.49 | 6.4 µL/min/1e6 cells | Cc1ccc2c(c1)OCC(=O)N1CCC[C@H](NS(C)(=O)=O)C1CO[C@H]1CC[C@@H]2CC1 (stereo in doubt) [Compound 40]
7.8 | 2 ×10⁻⁶ cm/s | 0.87 | 46 µL/min/1e6 cells | CC(C)(C)S(=O)(=O)N[C@H]1CCCN2C(=O)COc3ccccc3[C@H]3CC[C@H](CC3)OCC12 (stereo in doubt) [Compound 44]
